Source: patent US4376771A, “6-(p-Acylaminophenyl)-4,5-dihydropyridaz-3-ones and therapeutic agents containing said compounds” (BASF Aktiengesellschaft, priority 1977, dated 1983)
Values after ≈ are worked out from the molar mass of the structure shown. Where two headings read alike, the source gives them in different places.

Experiments:
human thrombocytes = test: Inhibition of the collagen-induced aggregation of human thrombocytes in vitro; type: cell-based; settings: for EC50: 10 min, read-out: Inhibition of thrombocyte aggregation EC 50%; for Inhibition of thrombocyte aggregation R.E. (relative effectiveness): acetylsalicylic acid = 1.00
Experimental: 1. Inhibition of the collagen-induced aggregation of human thrombocytes in vitro.
Thrombocyte-rich plasma is obtained by centrifuging venous citrate blood (300 g, 10 minutes duration at 4° C.). The photometric measurement of the thrombocyte aggregation is carried out with addition of MgCl2 (final concentration 10 millimoles/l) and of collagen Stago (final concentration 0.02 mg/ml) in a Born Mk 3 aggregometer. The maximum extinction change/sec is used as a measure of the aggregation.
The aggregation-inhibiting activity of the substances is tested after an incubation time of 10 minutes.
(§1) The effective doses or effective concentrations were calculated from the linear relationships between the logarithm of the dose or concentration and the logarithm of the effect, by means of regression analysis.
(§2) Acetylsalicyclic acid was used as the reference substance for the inhibition of thrombocyte aggregation and dihydralazine was used as the reference substance for the anti-hypertensive effect.

rat thrombocytes = test: Inhibition of the collagen-induced aggregation of rat thrombocytes ex vivo; type: in vivo, male Sprague-Dawley rats; settings: for ED33: Rattus norvegicus, read-out: Inhibition of thrombocyte aggregation ED 33%; for Inhibition of thrombocyte aggregation R.E. (relative effectiveness): acetylsalicylic acid 1.0
Experimental: 2. Inhibition of the collagen-induced aggregation of rat thrombocytes ex vivo.
The substances are administered orally to groups of 10-15 male Sprague-Dawley rats weighing 200-250 g. 2-4 hours after administration, blood is taken under ether narcosis and thrombocyte-rich plasma is obtained by centrifuging. The aggregation after addition of collagen is measured as indicated above.
as §1, §2

[1] = Toxicity (LD 50), mice, intraperitoneal administration; type: in vivo; settings: mouse, in vivo, ip; mice, intraperitoneal administration
From the text: (§3) ^(3) Mice. Intraperitoneal administration.

narcotized rats = test: Anti-hypertensive effect on narcotized rats; type: in vivo, male Sprague-Dawley rats; settings: for ED20: Rattus norvegicus, ip, dose at which the blood pressure falls by 20%, read-out: Lowering of blood pressure ED 20%; for ED20 / Lowering of blood pressure R.E. (relative effectiveness): rats, urethane narcosis, intraperitoneal; for Lowering of blood pressure R.E. (relative effectiveness): dihydralazine = 1.00; for anti-hypertensive effect (in words): Table 1; for anti-hypertensive power relative to dihydralazine: times more powerful than dihydralazine
Experimental: 3. Anti-hypertensive effect on narcotized rats.
To test the anti-hypertensive effect, the substances are administered intraperitoneally to groups of 3-5 male Sprague-Dawley rats weighing 240-280 g, under urethane narcosis ([…] given intraperitoneally). The measurement of the blood pressure in the carotid artery is carried out by means of Statham transducers. The ED 20% is determined as the dose which lowers the mean carotid blood pressure by 20%.
as §1, §2

[2] = test system: spontaneously hypertonic rats; test: Anti-hypertensive effect on spontaneously hypertonic rats; type: in vivo, male spontaneously hypertonic Okamoto rats; settings: for ED20: Rattus norvegicus, 2 hours, dose which lowers the blood pressure by 20% compared to the control group, read-out: Anti-hypertensive effect ED 20%; for ED20 / Anti-hypertensive effect R.E. (relative effectiveness): spontaneously hypertonic rats, oral; for Anti-hypertensive effect R.E. (relative effectiveness): dihydralazine 1.0
Experimental: 4. Anti-hypertensive effect on spontaneously hypertonic rats.
The substances are administered orally to groups of 4-8 male spontaneously hypertonic Okamoto rats weighing 270-340 g.
Before, and 2 hours after, the administration, the systolic blood pressure is measured non-surgically by means of piezo-electric crystal sensors.
The ED 20% is determined as the dose which lowers the systolic pressure by 20%, taking into account the values found with untreated control animals.
as §1, §2

Mice = test: Toxicity (LD 50), mice, intraperitoneal administration; type: in vivo; settings: compared with acetylsalicylic acid and dihydralazine; Table 2
From the text: as §3

[3] = human thrombocytes, in vitro, collagen 0.02 mg/ml, 10 minutes incubation, concentration which inhibits collagen-induced aggregation by 50%

Structure (SMILES) | EC50 (human thrombocytes; [3]) [µg/mL] | Inhibition of thrombocyte aggregation R.E. (relative effectiveness) (human thrombocytes; human thrombocytes, in vitro) | ED20 (narcotized rats) [mg/kg] | Lowering of blood pressure R.E. (relative effectiveness) (narcotized rats) | anti-hypertensive effect (in words) (narcotized rats) | also measured
CC(=O)Oc1ccccc1C(=O)O [Acetylsalicylic acid, acetylsalicylic acid, reference compound] |  |  |  |  |  | EC50 (human thrombocytes; Homo sapiens): 494 µg/mL (≈ 2740 µM); ED33 (rat thrombocytes; po): 134 mg/kg; Inhibition of thrombocyte aggregation R.E. (relative effectiveness) (rat thrombocytes; rats, oral, ex vivo): 1.0; LD50 [1]: 167 mg/kg
NNc1nnc(NN)c2ccccc12 [Dihydralazine, dihydralazine, reference compound] | 149 (≈ 783 µM) | 3.32 | 0.34 | 1.00 |  | ED20 [2]: 6.85 mg/kg; Anti-hypertensive effect R.E. (relative effectiveness) [2]: 1.0; LD50 [1]: 106 mg/kg
O=C1CCC(c2ccc(NC(=O)CCl)cc2)=NN1 [Example 1, 6-(p-chloroacetylaminophenyl)-4,5-dihydropyridaz-3-one] | 0.25 (≈ 0.941 µM) | 1,980 | 0.37 | 0.92 | about as active as dihydralazine | 
CC1CC(=O)NN=C1c1ccc(NC(=O)CCl)cc1 (stereo not shown) [Example 3, 6-(p-chloroacetylaminophenyl)-5-methyl-4,-dihydropyridaz-3-one] | 0.11 (≈ 0.393 µM) | 4,490 | 0.15 | 2.27 | about as active as dihydralazine | 
CC(Cl)C(=O)Nc1ccc(C2=NNC(=O)CC2)cc1 (stereo not shown) [Example 4, 6-[p-(2-chloropropionylamino)-phenyl]-4,5-dihydropyridaz-3-one] | 0.27 (≈ 0.965 µM) | 1,830 | 0.53 | 0.64 | about as active as dihydralazine | 
CC(Cl)C(=O)Nc1ccc(C2=NNC(=O)CC2C)cc1 (stereo not shown) [Example 5, 6-[p-(2-chloropropionylamino)-phenyl]-5-methyl-4,5-dihydropyridaz-3-one] | 0.031 (≈ 0.106 µM) | 15,900 | 0.0079 | 43.04 |  | ED33 (rat thrombocytes; rats, oral, ex vivo, Example 5 given 2 hours, acetylsalicylic acid 4 hours before measuring, dose which inhibits collagen-induced aggregation by 33%): 0.82 mg/kg; inhibition of thrombocyte aggregation after oral administration (in words) (rat thrombocytes; oral, Table 2): very strong inhibition of thrombocyte aggregation; Inhibition of thrombocyte aggregation R.E. (relative effectiveness) (rat thrombocytes; rats, oral, ex vivo): 163; anti-hypertensive power relative to dihydralazine (narcotized rats): 43 times; ED20 [2]: 1.16 mg/kg; lowering of blood pressure ([2]; spontaneously hypertensive rats, oral dose of 1.2 mg/kg): about 20%; Anti-hypertensive effect R.E. (relative effectiveness) [2]: 5.9; LD50 [1]: 231 mg/kg; acute toxicity (in words) (Mice): somewhat less than that of acetylsalicyclic acid and dihydralazine
O=C1CCC(c2ccc(NC(=O)CCCl)cc2)=NN1 [Example 6, 6-[p-(3-chloropropionylamino)-phenyl]-4,5-dihydropyridaz-3-one] | 0.35 (≈ 1.25 µM) | 1,410 | 10 | 0.03 | slight | inhibition of thrombocyte aggregation (in words) (human thrombocytes; human thrombocytes, collagen-induced, Table 1): highly specific thrombocyte aggregation-inhibiting effect
CC1CC(=O)NN=C1c1ccc(NC(=O)CCCl)cc1 (stereo not shown) [Example 7, 6-[p-(3-chloropropionylamino)-phenyl]-5-methyl-4,5-dihydropyridaz-3-one] | 0.3 (≈ 1.02 µM) | 1,650 | 0.045 | 7.56 |  | anti-hypertensive power relative to dihydralazine (narcotized rats): 7.6 times
CC1CC(=O)NN=C1c1ccc(NC(=O)CCCCl)cc1 (stereo not shown) [Example 8, 6-[p-(4-chlorobutyrylamino)-phenyl]-5-methyl-4,5-dihydropyridaz-3-one] | 1.7 (≈ 5.52 µM) | 291 | 0.32 | 1.06 | about as active as dihydralazine | 
CCC(Br)C(=O)Nc1ccc(C2=NNC(=O)CC2C)cc1 (stereo not shown) [Example 9] | 0.27 (≈ 0.767 µM) | 1,830 | 1.49 | 0.23 | slight | 
CC1CC(=O)NN=C1c1ccc(NC(=O)C(C)(C)CCl)cc1 (stereo not shown) [Example 11] | 0.47 (≈ 1.46 µM) | 1,050 | 0.61 | 0.56 |  | 
CC1CC(=O)NN=C1c1ccc(NC(=O)C(C)(C)CBr)cc1 (stereo not shown) [Example 12] | 0.44 (≈ 1.2 µM) | 1,120 | 0.34 | 1.00 | about as active as dihydralazine | 
CC(Br)C(=O)Nc1ccc(C2=NNC(=O)CC2C)cc1 (stereo not shown) [Example 16] | 0.58 (≈ 1.71 µM) | 852 | 0.4 | 0.85 | about as active as dihydralazine | 
CC1CC(=O)NN=C1c1ccc(NC(=O)C(C)(C)Br)cc1 (stereo not shown) [Example 17] | 0.89 (≈ 2.53 µM) | 555 | 2.93 | 0.12 | slight | 
